A word on the IC50: it is the concentration needed to halve the response being measured. A word on the melting point: it is the temperature of the solid-liquid transition.

Data on 16 compounds can be found in patent US20110269811A1, “INHIBITORS OF SEMICARBAZIDE-SENSITIVE AMINE OXIDASE (SSAO) AND VAP-1 MEDIATED ADHESION USEFUL FOR TREATMENT AND PREVENTION OF DISEASES” (priority 2006, published 2011).

The structures appear in SMILES notation. Where a name gives a salt, the structure may show the parent alone.

In one series the target is T1, Recombinant human MAO-A (Homo sapiens, UniProt P21397).
T1 construct: purchased BD Biosciences (MA, USA)
T1 sequence (P21397 1-527): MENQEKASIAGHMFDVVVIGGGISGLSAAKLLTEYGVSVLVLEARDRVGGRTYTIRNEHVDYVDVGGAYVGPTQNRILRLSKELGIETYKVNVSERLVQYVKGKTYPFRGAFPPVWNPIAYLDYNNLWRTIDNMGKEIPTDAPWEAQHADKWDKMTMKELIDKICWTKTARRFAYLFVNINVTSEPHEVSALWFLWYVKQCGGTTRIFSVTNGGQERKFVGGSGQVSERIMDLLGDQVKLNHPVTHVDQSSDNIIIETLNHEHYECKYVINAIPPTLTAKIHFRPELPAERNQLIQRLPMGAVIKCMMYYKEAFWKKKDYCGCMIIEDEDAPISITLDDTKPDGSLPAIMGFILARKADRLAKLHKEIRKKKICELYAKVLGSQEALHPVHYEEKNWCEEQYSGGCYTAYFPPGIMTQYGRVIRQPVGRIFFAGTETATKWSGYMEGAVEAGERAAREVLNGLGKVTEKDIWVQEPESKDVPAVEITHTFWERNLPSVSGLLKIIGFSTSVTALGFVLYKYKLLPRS
In words: MAO-A activity, colorimetric method, tyramine substrate. Particulars: for Specificity of SSAO on MAO-A: ratio of IC50 for MAO-A to IC50 for SSAO; for IC50: recombinant human MAO-A. Type of series: biochemical. The protocol:
The specificities of the different SSAO inhibitors was tested by determining their abilities to inhibit MAO-A and MAO-B activities in vitro. Recombinant human MAO-A and human MAO-B enzymes were obtained from BD Biosciences (MA, USA). MAO activity was measured using the colorimetric method essentially as described (Holt, A. et al. (1997) Anal. Biochem. 244: 384). A pre-determined amount of inhibitor diluted in 0.2M potassium phosphate buffer, pH 7.6, was added to each well, if required. The amount of inhibitor varied in each assay but was generally at a final concentration of between 1 nM and 1 mM. Controls lacked inhibitor. The following agents were then added to a final reaction volume of 200 μL in 0.2M potassium phosphate buffer, pH 7.6: 0.04 mg/ml of MAO-A or 0.07 mg/ml MAO-B enzyme, 15 μL of 10 mM tyramine substrate (for MAO-A), or 15 μL 100 mM benzylamine substrate (for MAO-B), and 50 μL of freshly made chromogenic solution. The chromogenic solution contained 750 μM vanillic acid (Sigma#V-2250), 400 μM 4-aminoantipyrine (Sigma #A-4328) and 12 U/mL horseradish peroxidase (Sigma #P-8250) in order to cause a change of 0.5 OD A490 nm/h. This was within the linear response range for the assay. The plates were incubated for 60 min at 37° C. The increase in absorbance, reflecting MAO activity, was measured at 490 nm using microplate spectrophotometer (Power Wave 40, Bio-Tek Inst.). Inhibition was presented as percent inhibition compared to control after correcting for background absorbance and IC50 values calculated using GraphPad Prism software. Clorgyline and pargyline (inhibitors of MAO-A and -B, respectively) at 1 μM, were added to some wells as positive controls for MAO inhibition. […] The compounds described in the present invention are therefore expected to have therapeutic utility in the treatment of diseases and conditions in which the activity of SSAO/VAP-1 plays a role, that is, in SSAO/VAP-1 mediated diseases and conditions.

For another series, the target named is T2, human MAO-B (Homo sapiens, UniProt P27338).
T2 construct: purchased BD Biosciences (MA, USA)
T2 sequence (P27338 1-520): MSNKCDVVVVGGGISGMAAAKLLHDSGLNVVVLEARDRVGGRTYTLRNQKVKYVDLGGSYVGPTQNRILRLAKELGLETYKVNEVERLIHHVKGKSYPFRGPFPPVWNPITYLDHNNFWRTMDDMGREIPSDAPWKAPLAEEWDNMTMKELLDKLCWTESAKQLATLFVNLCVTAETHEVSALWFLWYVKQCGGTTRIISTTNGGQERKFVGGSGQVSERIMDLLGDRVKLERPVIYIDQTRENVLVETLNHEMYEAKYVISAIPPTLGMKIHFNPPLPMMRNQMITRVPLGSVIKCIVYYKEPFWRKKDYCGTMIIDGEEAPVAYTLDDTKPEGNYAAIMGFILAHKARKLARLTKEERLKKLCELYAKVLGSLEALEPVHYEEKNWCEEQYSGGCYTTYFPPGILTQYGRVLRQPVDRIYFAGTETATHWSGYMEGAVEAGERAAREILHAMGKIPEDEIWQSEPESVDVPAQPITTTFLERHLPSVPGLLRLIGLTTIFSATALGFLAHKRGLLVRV
In words: MAO-B activity, colorimetric method, benzylamine substrate. Format: biochemical. The settings on record: for Specificity of SSAO on MAO-B: ratio of IC50 for MAO-B to IC50 for SSAO; for IC50: recombinant human MAO-B. The protocol:
The specificities of the different SSAO inhibitors was tested by determining their abilities to inhibit MAO-A and MAO-B activities in vitro. Recombinant human MAO-A and human MAO-B enzymes were obtained from BD Biosciences (MA, USA). MAO activity was measured using the colorimetric method essentially as described (Holt, A. et al. (1997) Anal. Biochem. 244: 384). A pre-determined amount of inhibitor diluted in 0.2M potassium phosphate buffer, pH 7.6, was added to each well, if required. […] Controls lacked inhibitor. The following agents were then added to a final reaction volume of 200 μL in 0.2M potassium phosphate buffer, pH 7.6: 0.04 mg/ml of MAO-A or 0.07 mg/ml MAO-B enzyme, 15 μL of 10 mM tyramine substrate (for MAO-A), or 15 μL 100 mM benzylamine substrate (for MAO-B), and 50 μL of freshly made chromogenic solution. The chromogenic solution contained 750 μM vanillic acid (Sigma#V-2250), 400 μM 4-aminoantipyrine (Sigma #A-4328) and 12 U/mL horseradish peroxidase (Sigma #P-8250) in order to cause a change of 0.5 OD A490 nm/h. […] The plates were incubated for 60 min at 37° C. The increase in absorbance, reflecting MAO activity, was measured at 490 nm using microplate spectrophotometer (Power Wave 40, Bio-Tek Inst.). Inhibition was presented as percent inhibition compared to control after correcting for background absorbance and IC50 values calculated using GraphPad Prism software. Clorgyline and pargyline (inhibitors of MAO-A and -B, respectively) at 1 μM, were added to some wells as positive controls for MAO inhibition.

Consider `COc1ccc(C/C(=C/F)CN)cc1.Cl` [Compound I-1-Z, (Z)-3-Fluoro-2-(4-methoxybenzyl)-allylamine hydrochloride], for which, on Recombinant human MAO-A, the “Specificity of SSAO on MAO-A” value was 4700 and the IC50 was found to be 85 µM. Further, on human MAO-B, the “Specificity of SSAO on MAO-B” value was determined as 88 and the IC50 was 1.6 µM.
Regarding `CCOc1ccc(C/C(=C\F)CN)cc1.Cl` [Compound I-2-E, (E)-3-Fluoro-2-(4-ethoxybenzyl)-allylamine hydrochloride], the melting point was in the range of 167 to 168 °C. In addition, on Recombinant human MAO-A, the “Specificity of SSAO on MAO-A” value is 9400 and the half-maximal inhibitory concentration (IC50) was 85 µM. Moreover, at human MAO-B, the “Specificity of SSAO on MAO-B” value is on record as 189 and the IC50 worked out at 1.7 µM.
`CCOc1ccc(C/C(=C/F)CN)cc1.Cl` [Compound I-2-Z, (Z)-3-Fluoro-2-(4-ethoxybenzyl)-allylamine hydrochloride] had a melting point of 153 to 154 °C. At Recombinant human MAO-A, the “Specificity of SSAO on MAO-A” value was 7900 and the IC50 was 79 µM. Moreover, on human MAO-B, the “Specificity of SSAO on MAO-B” value is given as 1200 and the IC50 was determined as 12 µM.
On the same counts, the results for `Cl.NC/C(=C\F)Cc1ccc(Cl)cc1` [Compound I-3-Z, (Z)-2-(4-Chlorobenzyl)-3-fluoro-allylamine hydrochloride] are 145 to 146 °C, 3250, 91 µM, 3 and 0.084 µM.
In the same order, the values of `COc1cccc(C/C(=C/F)CN)c1.Cl` [Compound I-5-Z, (Z)-3-Fluoro-2-(3-methoxybenzyl)allylamine hydrochloride] are 119 to 120.5 °C, 2643, 74 µM, 64.3 and 1.8 µM.
For the compound `CC(C)Oc1ccc(C/C(=C\F)CN)cc1` [Compound I-8-E, (E)-3-Fluoro-2-(4-isopropoxybenzyl)allylamine hydrochloride], at Recombinant human MAO-A, the “Specificity of SSAO on MAO-A” value is 4211 and the IC50 was 48 µM. At human MAO-B, the “Specificity of SSAO on MAO-B” value is recorded as 3070 and the IC50 was 35 µM.
Take `CC(C)Oc1ccc(C/C(=C/F)CN)cc1.Cl` [Compound I-8-Z, (Z)-3-Fluoro-2-(4-isopropoxybenzyl)allylamine hydrochloride]: the melting point is 147 to 148 °C. Also, on Recombinant human MAO-A, the “Specificity of SSAO on MAO-A” value was determined as 7000 and the IC50 was found to be 35 µM. In addition, at human MAO-B, the “Specificity of SSAO on MAO-B” value is recorded as 5400 and the IC50 was 27 µM.
As to `CSc1ccc(C/C(=C/F)CN)cc1.Cl` [Compound I-9-Z, (Z)-3-Fluoro-2-(4-methylthiobenzyl)allylamine hydrochloride], the melting point fell in the range of 144 to 146 °C. Moreover, at Recombinant human MAO-A, the “Specificity of SSAO on MAO-A” value is 8385 and the IC50 worked out at 109 µM. For the same compound, at human MAO-B, the “Specificity of SSAO on MAO-B” value was found to be 200 and the IC50 came out at 2.4 µM.
On the same counts, the results for `CC(C)c1ccc(C/C(=C\F)CN)cc1.Cl` [Compound I-14-E, (E)-3-Fluoro-2-(4-isopropylbenzyl)allylamine hydrochloride] are 175 to 176 °C, 5923, 77 µM, 2.54 and 0.033 µM.
In the same order, the values of `CC(C)c1ccc(C/C(=C/F)CN)cc1.Cl` [Compound I-14-Z, (Z)-3-Fluoro-2-(4-isopropylbenzyl)allylamine hydrochloride] are 175 to 176 °C, 11250, 90 µM, 1250 and 9.6 µM.
In the same order, the values of `CC(C)(C)c1ccc(C/C(=C/F)CN)cc1.Cl` [Compound I-15-Z, (Z)-3-Fluoro-2-(4-tert-butylbenzyl)allylamine hydrochloride] are 155 to 156 °C, 17000, 119 µM, 5429 and 38 µM.
For the compound `NC/C(=C\F)CCc1ccc(F)cc1` [Compound I-99-Z, (Z)-2-(fluoromethylene)-4-(4-fluorophenyl)butan-1-amine], at Recombinant human MAO-A, the “Specificity of SSAO on MAO-A” value is 177 and the IC50 was found to be 23 µM. On human MAO-B, the “Specificity of SSAO on MAO-B” value is on record as 2.1 and the IC50 came to 0.27 µM.
In the same order, the values of `NC/C(F)=C\Cc1cc(F)cc(C(F)(F)F)c1` [II-1-E, (E)-2-Fluoro-4-(3-fluoro-5-trifluoromethylphenyl)-but-2-enylamine] are >2400, > 87 µM, >2400 and > 87 µM.
`CN(C)c1cccc(C/C=C(/F)CN)c1.Cl` [II-11-E, (E)-2-Fluoro-4-(3-dimethylaminophenyl)-2-butenylamine hydrochloride]: at Recombinant human MAO-A, the “Specificity of SSAO on MAO-A” value stood at 2600 and the IC50 worked out at 286 µM. The “Specificity of SSAO on MAO-B” value at human MAO-B is listed as 7272.
`COc1cccc(C/C(C)=C(/F)CN)c1` [II-18-E, hydrochloride]: at Recombinant human MAO-A, the “Specificity of SSAO on MAO-A” value is >3448 and the IC50 was > 1000 µM. On human MAO-B, the “Specificity of SSAO on MAO-B” value is >3448 and the IC50 is > 1000 µM.
As to `COc1cccc(OC/C=C(/F)CN)c1` [II-19-E, (E)-2-fluoro-4-(3-methoxyphenoxy)but-2-en-1-amine], on Recombinant human MAO-A, the “Specificity of SSAO on MAO-A” value is >6250 and the IC50 is > 1000 µM. At human MAO-B, the “Specificity of SSAO on MAO-B” value is 5312 and the IC50 amounted to 850 µM.
